According to patent US12377104B1, “Methods for treating a fatty liver disease” (Madrigal Pharmaceuticals, Inc., priority 2024, dated 2025):

What was measured:
[1] = test system: adults with biopsy-confirmed NASH; experiment: MAESTRO-NASH: non-invasive predictive markers of biopsy response; assay type: in vivo, human; details: 100 mg
Protocol: Histologic endpoints were assessed after 52 weeks. […] The non-invasive correlates of response in the MAESTRO-NASH trial are summarized below.
Adults with ≥3 metabolic risk factors, liver stiffness ≥8.5 kPa, hepatic fat ≥8%, biopsy-confirmed NASH with F1B-F3 fibrosis, and NAS≥4 were eligible to participate in MAESTRO-NASH.
Random Forest model was utilized to determine the biomarkers and imaging tests both at baseline and change from baseline that had the most important association with response on biopsy for NASH resolution and/or fibrosis improvement. The data was based on baseline characteristics and change from baseline of more than 40 variables: biomarkers, clinical features, and imaging. This analysis confirmed the importance of MRI-PDFF (FIGS. 42-43).

[2] = MAESTRO-NASH: thyroid hormones at week 52; assay type: in vivo, human

For `CC(C)c1cc(Oc2c(Cl)cc(-n3nc(C#N)c(=O)[nH]c3=O)cc2Cl)n[nH]c1=O` [Resmetirom, 2-(3,5-dichloro-4-((5-isopropyl-6-oxo-1,6-dihydropyridazin-3-yl)oxy)phenyl)-3,5-dioxo-2,3,4,5-tetrahydro-1,2,4-triazine-6-carbonitrile], the “NASH resolution responders with at least a 30% PDFF response” value [1] was 96%, the “fibrosis improvement responders with at least a 30% PDFF response” value [1] was 88% and the “FT3 (not on thyroxine), LS mean CFB” value ([2]; 80 mg, Week 52) was -0.01 ng/L. The “FT3 (not on thyroxine), LS mean difference from PBO (CFB)” value ([2]; 80 mg, Week 52) was 0.01 ng/L, the “FT3 (thyroxine-treated), LS mean CFB” value ([2]; 80 mg, Week 52) was 0.04 ng/L and the “FT3 (thyroxine-treated), LS mean difference from PBO (CFB)” value ([2]; 80 mg, Week 52) was 0.05 ng/L. The “FT3, LS mean CFB” value ([2]; 80 mg, Week 52) was -0.01 ng/L, the “FT3, LS mean difference from PBO (CFB)” value ([2]; 80 mg, Week 52) was 0.02 ng/L and the “FT3/rT3 (not on thyroxine), LS mean CFB” value ([2]; 80 mg, Week 52) was 0.06. For the same compound, the “FT3/rT3 (not on thyroxine), LS mean difference from PBO (CFB)” value ([2]; 80 mg, Week 52) was 0.06, the “FT3/rT3 (thyroxine-treated), LS mean CFB” value ([2]; 80 mg, Week 52) was 0.05 and the “FT3/rT3 (thyroxine-treated), LS mean difference from PBO (CFB)” value ([2]; 80 mg, Week 52) was 0.06. The “FT3/rT3, LS mean difference from PBO (CFB)” value ([2]; 80 mg, Week 52) was 0.06, the “FT4 (not on thyroxine), LS mean % CFB” value ([2]; 80 mg, Week 52) was −13.8% and the “FT4 (not on thyroxine), LS mean CFB” value ([2]; 80 mg, Week 52) was 0.16 ng/dL. For the same compound, the “FT4 (not on thyroxine), LS mean difference from PBO (% CFB)” value ([2]; 80 mg, Week 52) was −16.3%, the “FT4 (not on thyroxine), LS mean difference from PBO (CFB)” value ([2]; 80 mg, Week 52) was -0.18 ng/dL and the “FT4 (thyroxine-treated), LS mean % CFB” value ([2]; 80 mg, Week 52) was −14.0%. The “FT4 (thyroxine-treated), LS mean CFB” value ([2]; 80 mg, Week 52) was 0.18 ng/dL, the “FT4 (thyroxine-treated), LS mean difference from PBO (% CFB)” value ([2]; 80 mg, Week 52) was −17.9% and the “FT4 (thyroxine-treated), LS mean difference from PBO (CFB)” value ([2]; 80 mg, Week 52) was -0.21 ng/dL. The “FT4, LS mean % CFB” value ([2]; 80 mg, Week 52) was 13.9%, the “FT4, LS mean CFB” value ([2]; 80 mg, Week 52) was -0.17 ng/dL and the “FT4, LS mean difference from PBO (% CFB)” value ([2]; 80 mg, Week 52) was −16.6%. The “FT4, LS mean difference from PBO (CFB)” value ([2]; 80 mg, Week 52) was -0.19 ng/dL, the “TBG (not on thyroxine), LS mean CFB” value ([2]; 80 mg, Week 52) was 0.19 mg/L and the “TBG (not on thyroxine), LS mean difference from PBO (CFB)” value ([2]; 80 mg, Week 52) was -1.8 mg/L. For the same compound, the “TBG (thyroxine-treated), LS mean CFB” value ([2]; 80 mg, Week 52) was 1.1 mg/L, the “TBG (thyroxine-treated), LS mean difference from PBO (CFB)” value ([2]; 80 mg, Week 52) was -2.6 mg/L and the “TBG, LS mean CFB” value ([2]; 80 mg, Week 52) was -0.32 mg/L. The “TBG, LS mean difference from PBO (CFB)” value ([2]; 80 mg, Week 52) was -1.9 mg/L, the “TSH (not on thyroxine), LS mean CFB” value ([2]; 80 mg, Week 52) was −0.23 mIU/L and the “TSH (not on thyroxine), LS mean difference from PBO (CFB)” value ([2]; 80 mg, Week 52) was −0.15 mIU/L. For the same compound, the “TSH (thyroxine-treated), LS mean CFB” value ([2]; 80 mg, Week 52) was −0.63 mIU/L, the “TSH (thyroxine-treated), LS mean difference from PBO (CFB)” value ([2]; 80 mg, Week 52) was −0.41 mIU/L and the “TSH, LS mean CFB” value ([2]; 80 mg, Week 52) was −0.28 mIU/L. For the same compound, the “TSH, LS mean difference from PBO (CFB)” value ([2]; 80 mg, Week 52) was −0.18 mIU/L, the “rT3 (not on thyroxine), LS mean CFB” value ([2]; 80 mg, Week 52) was -4.5 ng/dL and the “rT3 (not on thyroxine), LS mean difference from PBO (CFB)” value ([2]; 80 mg, Week 52) was -4.5 ng/dL. For the same compound, the “rT3 (thyroxine-treated), LS mean CFB” value ([2]; 80 mg, Week 52) was -5.1 ng/dL, the “rT3 (thyroxine-treated), LS mean difference from PBO (CFB)” value ([2]; 80 mg, Week 52) was 5.1 ng/dL and the “rT3, LS mean CFB” value ([2]; 80 mg, Week 52) was -4.6 ng/dL. The “rT3, LS mean difference from PBO (CFB)” value ([2]; 80 mg, Week 52) was -4.73 ng/dL, the “rT3, LS mean CFB” value ([2]; 80 mg, week 52) was 4.6 ng/dL and the “rT3, LS mean CFB difference from PBO” value ([2]; 80 mg, week 52) was -4.7 ng/dL. The “FT3 (not on thyroxine), LS mean CFB” value ([2]; 100 mg, Week 52) was -0.08 ng/L, the “FT3 (not on thyroxine), LS mean difference from PBO (CFB)” value ([2]; 100 mg, Week 52) was -0.06 ng/L and the “FT3 (thyroxine-treated), LS mean CFB” value ([2]; 100 mg, Week 52) was -0.03 ng/L. For the same compound, the “FT3 (thyroxine-treated), LS mean difference from PBO (CFB)” value ([2]; 100 mg, Week 52) was 0.01 ng/L, the “FT3, LS mean CFB” value ([2]; 100 mg, Week 52) was 0.08 ng/L and the “FT3, LS mean difference from PBO (CFB)” value ([2]; 100 mg, Week 52) was -0.05 ng/L. The “FT3/rT3 (not on thyroxine), LS mean CFB” value ([2]; 100 mg, Week 52) was 0.06, the “FT3/rT3 (not on thyroxine), LS mean difference from PBO (CFB)” value ([2]; 100 mg, Week 52) was 0.07 and the “FT3/rT3 (thyroxine-treated), LS mean CFB” value ([2]; 100 mg, Week 52) was 0.06. For the same compound, the “FT3/rT3 (thyroxine-treated), LS mean difference from PBO (CFB)” value ([2]; 100 mg, Week 52) was 0.06, the “FT3/rT3, LS mean difference from PBO (CFB)” value ([2]; 100 mg, Week 52) was 0.07 and the “FT4 (not on thyroxine), LS mean % CFB” value ([2]; 100 mg, Week 52) was −17.6%. The “FT4 (not on thyroxine), LS mean CFB” value ([2]; 100 mg, Week 52) was -0.21 ng/dL, the “FT4 (not on thyroxine), LS mean difference from PBO (% CFB)” value ([2]; 100 mg, Week 52) was 20.0% and the “FT4 (not on thyroxine), LS mean difference from PBO (CFB)” value ([2]; 100 mg, Week 52) was -0.23 ng/dL. The “FT4 (thyroxine-treated), LS mean % CFB” value ([2]; 100 mg, Week 52) was 20.6%, the “FT4 (thyroxine-treated), LS mean CFB” value ([2]; 100 mg, Week 52) was -0.26 ng/dL and the “FT4 (thyroxine-treated), LS mean difference from PBO (% CFB)” value ([2]; 100 mg, Week 52) was −24.4%. For the same compound, the “FT4 (thyroxine-treated), LS mean difference from PBO (CFB)” value ([2]; 100 mg, Week 52) was 0.29 ng/dL, the “FT4, LS mean % CFB” value ([2]; 100 mg, Week 52) was −18.1% and the “FT4, LS mean CFB” value ([2]; 100 mg, Week 52) was -0.22 ng/dL. The “FT4, LS mean difference from PBO (% CFB)” value ([2]; 100 mg, Week 52) was 20.7%, the “FT4, LS mean difference from PBO (CFB)” value ([2]; 100 mg, Week 52) was -0.24 ng/dL and the “TBG (not on thyroxine), LS mean CFB” value ([2]; 100 mg, Week 52) was 0.21 mg/L. For the same compound, the “TBG (not on thyroxine), LS mean difference from PBO (CFB)” value ([2]; 100 mg, Week 52) was 1.8 mg/L, the “TBG (thyroxine-treated), LS mean CFB” value ([2]; 100 mg, Week 52) was 3.1 mg/L and the “TBG (thyroxine-treated), LS mean difference from PBO (CFB)” value ([2]; 100 mg, Week 52) was 4.6 mg/L. For the same compound, the “TBG, LS mean CFB” value ([2]; 100 mg, Week 52) was -0.60 mg/L, the “TBG, LS mean difference from PBO (CFB)” value ([2]; 100 mg, Week 52) was -2.2 mg/L and the “TSH (not on thyroxine), LS mean CFB” value ([2]; 100 mg, Week 52) was −0.20 mIU/L. The “TSH (not on thyroxine), LS mean difference from PBO (CFB)” value ([2]; 100 mg, Week 52) was −0.12 mIU/L, the “TSH (thyroxine-treated), LS mean CFB” value ([2]; 100 mg, Week 52) was −0.13 mIU/L and the “TSH (thyroxine-treated), LS mean difference from PBO (CFB)” value ([2]; 100 mg, Week 52) was 0.09 mIU/L. The “TSH, LS mean CFB” value ([2]; 100 mg, Week 52) was −0.20 mIU/L, the “TSH, LS mean difference from PBO (CFB)” value ([2]; 100 mg, Week 52) was 0.10 mIU/L and the “rT3 (not on thyroxine), LS mean CFB” value ([2]; 100 mg, Week 52) was 4.9 ng/dL. For the same compound, the “rT3 (not on thyroxine), LS mean difference from PBO (CFB)” value ([2]; 100 mg, Week 52) was -5.1 ng/dL, the “rT3 (thyroxine-treated), LS mean CFB” value ([2]; 100 mg, Week 52) was -6.3 ng/dL and the “rT3 (thyroxine-treated), LS mean difference from PBO (CFB)” value ([2]; 100 mg, Week 52) was -6.3 ng/dL. For the same compound, the “rT3, LS mean CFB” value ([2]; 100 mg, Week 52) was 5.1 ng/dL, the “rT3, LS mean difference from PBO (CFB)” value ([2]; 100 mg, Week 52) was -5.2 ng/dL and the “rT3, LS mean CFB” value ([2]; 100 mg, week 52) was 5.1 ng/dL. For the same compound, the “rT3, LS mean CFB difference from PBO” value ([2]; 100 mg, week 52) was 5.2 ng/dL, the “effect on levels of thyrotropin or free triiodothyronine (FT3)” value ([2]; in vivo) was “no effect” and the “reduction of prohormone free T4 (FT4) levels” value ([2]; independent of thyroxine-replacement status) was 16 to 19%.
